Reference: patent US20220273678A1 (priority 2020, published 2022)
Entries after “also recorded” stand apart in the source; their conditions may differ.

Tests used:
[1] = test system: SARS-CoV-2; test: SARS-CoV-2 replication in human airway epithelial (HAE) air-liquid interface cultures, flow cytometry; format: cell-based
[2] = test system: Vero cells; test: XTT cell cytotoxicity assay in uninfected Vero cells; format: cell-based, African green monkey; conditions: uninfected cultures, 10-1000 nM
Method: To measure cell viability to determine if there was any treatment-induced cytotoxicity, cells were plated and treated with drugs as described above. Cells were exposed to the same dilution series created for the in vitro efficacy studies. As above, vehicle-treated cells served as the 0% cytotoxicity control. After 24 h, cell viability was measured on a Synergy 2 Biotek microplate reader (Biotek Inc) via the XTT Cell Proliferation Assay Kit (ATCC® 30-1011K™) according to the manufacturer's protocol. Similar data were obtained in three independent experiments.

[3] = test system: cleaved caspase 3; format: cell-based, human; conditions: methanesulfonate
[4] = test system: icSARS-CoV-2-mNG; format: cell-based, SARS-CoV-2; conditions: methanesulfonate
[5] = test system: IFN-β, IFN-λ; format: cell-based, human; conditions: infected Calu3, 48 hpi, Mito-MES 100-1000 nM; methanesulfonate
[6] = test system: IL-6; format: cell-based, African green monkey; conditions: Mito-MES 10-1000 nM, 4F 10 μM
[7] = test system: SARS-CoV-2; test: K18-hACE2 mice infected with SARS-CoV-2 (wild type), lung viral titer and viral protein; format: in vivo
[8] = test system: SARS-CoV-2; test: Post-exposure prophylaxis in two parents of a household exposed to SARS-CoV-2; format: in vivo, human
From the text: FIG. 8-a show the timeline of exposure, symptoms and diagnostic tests in household. Two parents [[…], A1 with history of chronic myelogenous leukemia (CML) and healthy parent 39 years, A2] were notified on Dec. 5, 2020 [defined as day 5 (D5)], that the schoolteacher (T1) of their child (C1) tested positive for SARS-CoV-2 and developed symptoms of Covid-19. C1 had 6-h exposure to T1 on November 30 (with masks) (D0). The family had no other exposure to any other person between November 20-30 (D-10 to D0) given Thanksgiving Day on November 26 (D-4). Several children and parents from the same school class were infected with Covid-19 within the first 2 weeks of December. C1 developed fever (100.4° F.; 38° C.) and fatigue 2.5 days after exposure (D0) that lasted 3 days (D2-D5) and remained asymptomatic since then. The second child (C2) was asymptomatic until D12 when they developed fever (100.4° F.; 38° C.), fatigue and coryza on D12-D14. A1 and A2 started Mito-MES on D4. […]
One important consideration with COVID-19 testing is that it is often unclear how exactly the NP swab was obtained (by healthcare worker or not and whether the posterior or anterior nasopharynx were assessed). […]

[9] = test system: SARS-CoV-2 wild type (WT); test: Lung inflammation in K18-hACE2 mice infected with SARS-CoV-2 wild type (cohort A, 3 dpi); format: in vivo
[10] = cited from earlier work
[11] = mice, doses as high as 230 mg/kg/day; cited from earlier work
[12] = up to 80 mg orally daily, up to one year; methanesulfonate; cited from earlier work

## COC1=C(OC)C(=O)C(CCCCCCCCCC[P+](c2ccccc2)(c2ccccc2)c2ccccc2)=C(C)C1=O.CS(=O)(=O)[O-] [Mito-MES, 10-(4,5-dimethoxy-2-methyl-3,6-dioxo-1,4-cyclohexadienyl) decyl triphenylphosphonium methanesulfonate]
[1]; 1 μM Mito-MES, Control 20.0%, MOI 0.1
  Viral replication by flow cytometry in human airway epithelial cells: 0.4%
[1]; HAE ALI cultures, 100 nM Mito-MES
  percent of SARS-CoV-2 infected human lung epithelial cells, flow cytometry: significantly reduced the percent of SARS-CoV-2 infected human lung epithelial cells
[1]; HAE ALI cultures, methanesulfonate
  percent of SARS-CoV-2 infected FOXJ1+ ciliated epithelial cells, flow cytometry: significantly reduced the percent of human FOXJ1 (forkhead box J1) positive ciliated epithelial cells infected with SARS-CoV-2
[2]
  cytotoxicity, XTT cell cytotoxicity assay: no observed cytotoxicity
[3]; Calu3, Mito-MES 10-1000 nM
  SARS-CoV-2-induced cleavage of caspase 3, immunofluorescence: reduced SARS-CoV-2-induced increase in cleavage of caspase 3; also recorded: reduced by Mito-MES treatment
[3]; Calu3, Mito-MES 100 nM, 4F 10 μM
  percent of infected cells positive for cleaved caspase 3 and MFI of cleaved caspase 3 per cell, flow cytometry: attenuated SARS-CoV-2-induced increase; also recorded: inhibits or reduces SARS-CoV-2-induced increase
[4]
  antiviral activity against fluorescent SARS-CoV-2: potent and similar antiviral activity
[5]
  secreted and cellular IFN-β and IFN-λ: did not impact increase in secreted and cellular IFN-β
[6]
  SARS-CoV-2-induced secretion of IL-6: attenuated the increase in secretion of IL-6
[7]; 4 mg/kg i.p. from 24 hours before infection, once per day
  reduction in SARS-CoV-2 viral titers in the lungs relative to vehicle: ~2 log units
[7]; 4 mg/kg, 8 hours after infection
  reduction in SARS-CoV-2 viral titers in the lungs relative to vehicle: 1.5 log units
[7]; 3 dpi
  SARS-CoV-2 N protein among lung cell subtypes, flow cytometry: had anti-SARS-CoV-2 activity in EPCAM(+) lung epithelial cells
[7]; K18-hACE2 mice, 4 mg/kg per day intraperitoneally, 72 hpi
  viral titers compared to controls (vehicle): viral titers were lower
[7]; K18-hACE2 mice, overall
  reduction of the replication of SARS-CoV-2: at least 2 orders of magnitude
[8]; each parent, three timepoints over 5 weeks
  plasma IgG to SARS-CoV-2 S1 protein: undetectable levels
[8]; two parents, 20 mg/day oral Mito-MES from D4, 6 weeks
  symptoms and virological / serological confirmation of infection: remained asymptomatic and without virological and serological confirmation of infection
[9]; 4 mg/kg i.p. daily, 3 dpi
  reduction in IL-6 in the lungs, Luminex: at least 2 orders of magnitude
  reduction in IL-lb in the lungs, Luminex: at least 2 orders of magnitude
[9]; 3 dpi
  frequency of CD45+ immune cells in lungs, flow cytometry: reduced frequency of CD45+ immune
  frequency of NK cells in lungs: reduced frequency of NK cells
[9]; WT SARS-CoV-2
  levels of TNFa: did not change
[9]; cohort A and cohort B
  protein levels of IL-18: did not change protein levels of IL-18
[9]; lungs, flow cytometry
  frequency of neutrophils, macrophages, myeloid DCs, lymphoid DCs, T cells, B cells: did not alter frequency
[10]; based on post 4 h data
  elimination half-life: about 14 h
[10]; mice, 4 mg/kg/day
  lung tissue penetration: good lung tissue penetration
[10]; mice, >10 days of oral supplementation
  accumulation in tissues including liver and kidney: 50 to 700 pmol/g (wet weight)
[10]; oral administration
  time of peak plasma concentration: ≤ 1 h
[11]
  mutagenicity and toxicity: non-mutagenic and non-toxic
[12]
  safety in humans: safety for up to one year in doses as high as 80 mg orally daily has been validated; also recorded: without any serious adverse events
